Consider four compounds from patent US20040215021A1, “Stable lansoprazole containing more than 500 ppm, up to about 3,000 ppm water and more than 200 ppm, up to about 5,000 ppm alcohol” (priority 2002, published 2004).

A short description of series [1]: Stability of stabilized vs. non-stabilized 'solvent-free' lansoprazole (HPLC impurities, color). It is filed as physicochemical. Particulars: 3 months, 40° C., 75% humidity. From the text:
(§1) Chromatographic purity method of lansoprazole is detailed in the monograph in USP Forum Vol.26(5) [September-October 2000].

Series [2] is described as follows: Stability of lansoprazole under different storage conditions (HPLC impurities). It is filed as physicochemical.
From the text: The obtained lansoprazole is stable.
as §1

For series [3] the following is noted: cited from earlier work.

Where two headings read alike, the source gives them in different places.

As to `Cc1c(OCC(F)(F)F)ccnc1C[S+]([O-])c1nc2ccccc2[nH]1` (centres unmarked) [Lansoprazole Stabilized With Ammonia], in series [1], the Color entry was “White”, the LNP-SO2 was 0.02%, the LNPS was found to be 0.03% and the “Total Impurities” value was 0.08%.

Consider `Cc1c(OCC(F)(F)F)ccnc1C[S+]([O-])c1nc2ccccc2[nH]1` (centres unmarked) [Lansoprazole Not Stabilized With Ammonia], for which, in series [1], the Color result is given as “Brownish”, the LNP-SO2 was 0.04%, the LNPS is recorded as 0.06% and the “Total Impurities” value is recorded as 0.31%.

In the case of `Cc1c(OCC(F)(F)F)ccnc1C[S+]([O-])c1nc2ccccc2[nH]1` (centres unmarked) [wet lansoprazole product], the “Stability (in words)” value in series [2] (Example 4, wet product before drying, water about 2,200 ppm, ethanol about 300 to about 500 ppm expected) is reported as “behave similarly to the dry lansoprazole”.

As to `Cc1c(OCC(F)(F)F)ccnc1C[S+]([O-])c1nc2ccccc2[nH]1` (centres unmarked) [Lansoprazole, 2-[[[3-methyl-4-(2,2,2-trifluoro-ethoxy)-2-pyridinyl]methyl]sulfinyl]-1H-benzimidazole], the Color on storage result in series [3] (4 months at 40° C. and 75% room humidity) was “pale brown”; in series [3] (4 months at 40° C., absence of humidity), “pale yellowish brown”. The LNP-SO2 in series [2] (1 month, 2-8° C.) is on record as 0.04%; in series [2] (1 month, 25° C., 60% humidity), 0.04%; in series [2] (2 month, 2-8° C.), 0.04%; in series [2] (2 month, 25° C., 60% humidity), 0.04%; in series [2] (2 weeks, 25° C., 60% humidity), 0.04%; in series [2] (3 month, 2-8° C.), 0.04%. In addition, the LNP-SO2 in series [2] (3 month, 25° C., 60% humidity) came out at 0.04%; in series [2] (6 month, 2-8° C.), 0.04%; in series [2] (6 month, 25° C., 60% humidity), 0.04%; in series [2] (9 month, 2-8° C.), 0.05%; in series [2] (9 month, 25° C., 60% humidity) it was 0.05%; in series [2] (12 month, 25° C., 60% humidity), 0.04%. The LNP-SO2 in series [2] (time 0) amounted to 0.04%. In addition, the LNPS in series [2] (1 month, 2-8° C.) is 0.01%; in series [2] (1 month, 25° C., 60% humidity), 0.01%; in series [2] (2 month, 2-8° C.), 0.01%; in series [2] (2 month, 25° C., 60% humidity) it was 0.01%; in series [2] (2 weeks, 25° C., 60% humidity) it was “<detection limit”; in series [2] (3 month, 2-8° C.), “<detection limit”. Besides, the LNPS entry in series [2] (3 month, 25° C., 60% humidity) is “<detection limit”; in series [2] (6 month, 2-8° C.) it was “<detection limit”; in series [2] (6 month, 25° C., 60% humidity), “<detection limit”; in series [2] (9 month, 2-8° C.) it was “<detection limit”; in series [2] (9 month, 25° C., 60% humidity), 0.04%; in series [2] (12 month, 2-8° C.), “<detection limit”. For the same compound, the LNPS in series [2] (12 month, 25° C., 60% humidity) is 0.07%; in series [2] (time 0) it was “<detection limit”. The “Total Impurities” value in series [2] (1 month, 2-8° C.) is reported as 0.05%; in series [2] (1 month, 25° C., 60% humidity) it was 0.09%; in series [2] (2 month, 2-8° C.), 0.05%; in series [2] (2 month, 25° C., 60% humidity), 0.08%; in series [2] (2 weeks, 25° C., 60% humidity), 0.04%; in series [2] (3 month, 2-8° C.), 0.04%. Besides, the “Total Impurities” value in series [2] (3 month, 25° C., 60% humidity) is recorded as 0.1%; in series [2] (6 month, 2-8° C.), 0.04%; in series [2] (6 month, 25° C., 60% humidity), 0.12%; in series [2] (9 month, 2-8° C.), 0.05%; in series [2] (9 month, 25° C., 60% humidity), 0.18%; in series [2] (12 month, 2-8° C.), 0.03%. Further, the “Total Impurities” value in series [2] (12 month, 25° C., 60% humidity) worked out at 0.32%; in series [2] (time 0) it was 0.04%. Further, the “Stability (in words)” value in series [2] (product of Example 2, water 2,200 ppm, alcohol <50 ppm) is given as “stable”.
